# Source: patent US20100160445A1, “Synergistic Mixtures of OPP and DGH” (priority 2002, published 2010)
# Legend:
# [1] = system: wild strain bacteria isolated from previously contaminated systems; test: In-Can Preservation Test of paint samples; type: cell-based; details: for Effective Preservative (ppm): two inoculation challenge; as to Microbial growth, 1st Inoculation, 1st sub-column: key: 4 = Heavy Microbial Growth; 3 = Moderate Microbial Growth; 2 = Slight Microbial Growth; 1 = Trace Microbial Growth; 0 = No Microbial Growth; as to Microbial growth, 1st Inoculation, 2nd sub-column: key: 4 = Heavy Microbial Growth; 3 = Moderate Microbial Growth; 2 = Slight Microbial Growth; 1 = Trace Microbial Growth; 0 = No Microbial Growth; as to Microbial growth, 2nd Inoculation, 1st sub-column: key: 4 = Heavy Microbial Growth; 3 = Moderate Microbial Growth; 2 = Slight Microbial Growth; 1 = Trace Microbial Growth; 0 = No Microbial Growth; as to Microbial growth, 2nd Inoculation, 2nd sub-column: key: 4 = Heavy Microbial Growth; 3 = Moderate Microbial Growth; 2 = Slight Microbial Growth; 1 = Trace Microbial Growth; 0 = No Microbial Growth
# Method: Preservation Testing was performed on the three paint samples: Acrylic Flat, Acrylic and Vinyl Acrylic. Each sample was treated with various levels OPP, DGH individually and a mixture of OPP and DGH. All samples were then inoculated with wild strain bacteria isolated from previously contaminated systems. Following the initial inoculation, the samples were reinoculated on day 7. This testing scenario best simulates what happens in a “real world” situation. […]
# [2] = system: mixed inoculum of bacteria; test: MIC and synergy (K) in nutrient broth, microtiter plates; type: cell-based
# Method: Stock solutions of each product were prepared in sterile distilled water. Synergism was measured by the method first described by F. C. Kull, P. C. Eisman, H. D. Sylwestrowicz and R. L. Mayer in Applied Microbiology, 9, 538-41 ([…]). This manner of determining synergism has been widely used and is industrially acceptable. It is believed that the specified method is sufficient in explaining the process. However for a further description, reference can be made to U.S. Pat. No. 3,231,509 and its file history, where this type of data was considered acceptable.
# • 1. Incubator capable of maintaining a variable temperature range (25-45 C) • 2. Samples of each biocide or test compound to be examined • 3. Microtiter plates—96 well with lid, sterile. • 4. 8-12 channel micropipetting device capable of pipetting 0-250 ul volumes • 5. Micropipette tips capable of holding up to 250 ul volumes • 6. Sterile microbiological culture broth. Trypticase Soy Broth (TSB) or Nutrient Broth (NB) is recommended for bacteria and Sabouraud Maltose Broth (SMB) or Sabouraud Dextrose Broth (SDB) is recommended for yeasts and molds. In the case of this particular study the microbiological culture medium was Nutrient Broth at pH 7.0, 8.0 and 9.0. • 7. Pure cultures of microorganisms of choice grown on appropriate agar medium • 8. Sterile distilled water • 9. 100 mL volumetric flasks (one for each biocide to be tested) • 10. Sterile 10 mL tubes of Phosphate buffer (Butterfield's buffer pH 7.2+/−0.2). Contains purified water, monobasic potassium phosphate and sodium hydroxide for pH adjustment. • 11. Sterile cotton swabs • 12. 0.5 MacFarland Turbidity Standard
# The day before testing, perform a streak plate of each organism to be tested on an appropriate agar medium (Trypticase Soy Agar). Organisms tested in this study were: Wild strain bacteria isolated from previously contaminated industrial systems and which were identified as: Pseudomonas sp., Escherchia coli , Enterobacter sp., Alcaligenes sp. and Alcaligenes faecalis. On the day of the test, use a sterile cotton swab to harvest some of the growth. Place swab into a tube containing 10 mL sterile phosphate buffer. Compare and adjust the turbidity of the organisms in the tube to 1×10^8 cfu/mL using a 0.5 MacFarland Turbidity Standard. Dilute the 10 mL tube into 90 mL of sterile 2× nutrient broth at pH 7.0, 8.0 and 9.0.
# 1. Design the layout of the microtiter plates based on the number of organisms to test and the number of biocides and desired concentrations to test. A separate microtiter plate is required for testing each biocide alone, in addition to the combination microtiter plate. 2. Prepare a working stock solution of each biocide to be tested. For the combination microtiter plate, the working stock solution of Biocide A will be 8× the concentration desired in the first well of the combination microtiter plate. The working stock solution of Biocide B will be 4× the concentration desired in the first well of the combination microtiter plate. For the alone microtiter plates, the working stock solutions of Biocide A and Biocide B will both be 4× the concentration desired in the first well of the single biocide microtiter plates.
# Dodecylguanidine hydrochloride: (For combination plates) A solution of this product which is 35% active, was made as follows: […]=8000 ppm active=8000/0.35=22,857 ppm, 2.28 g into 100 mL sterile diH2O. Levels to test are: 1000 ppm, 500 ppm, 250 ppm, 125 ppm, 62.5 ppm, 31.2 ppm, 15.6 ppm, 7.8 ppm, 3.9 ppm, 1.95 ppm
# Ortho-PhenylPhenol: (For combination plates) Make a solution of this product which is 99% active, 4×125=500 ppm active=500/0.99=505 ppm, 0.05 g into 100 mL MeOH and sterile diH2O. Level to test is 125 ppm.
# 3. Place 50 ul of sterile distilled water in all of the rows in columns 1 through 10, and 100 ul of sterile distilled water in all of the rows in columns 11 and 12 of the 96 well combination microtiter plate. […]
# [3] = Table 2 paint (Acrylic Flat / Vinyl Acrylic Flat), 1000 ppm
# [4] = Table 2 paint (Acrylic Flat / Vinyl Acrylic Flat), 1500 ppm
# [5] = Table 2 paint (Acrylic Flat / Vinyl Acrylic Flat), 2000 ppm
# [6] = Table 2 paint (Acrylic Flat / Vinyl Acrylic Flat), 2500 ppm
# [7] = Table 2 paint (Acrylic Flat / Vinyl Acrylic Flat), 3000 ppm
# [8] = Table 2 paint (Acrylic Flat / Vinyl Acrylic Flat), 3500 ppm
# [9] = Table 2 paint (Acrylic Flat / Vinyl Acrylic Flat), 4000 ppm
# [10] = Table 3 paint (Vinyl Acrylic Flat / Acrylic Flat), 1000 ppm
# [11] = Table 3 paint (Vinyl Acrylic Flat / Acrylic Flat), 1500 ppm
# [12] = Table 3 paint (Vinyl Acrylic Flat / Acrylic Flat), 2000 ppm
# [13] = Table 3 paint (Vinyl Acrylic Flat / Acrylic Flat), 2500 ppm
# [14] = Table 3 paint (Vinyl Acrylic Flat / Acrylic Flat), 3000 ppm
# [15] = Table 3 paint (Vinyl Acrylic Flat / Acrylic Flat), 3500 ppm
# [16] = Table 3 paint (Vinyl Acrylic Flat / Acrylic Flat), 4000 ppm
compound,measurement,setting,value
"Oc1ccccc1-c1ccccc1 [OPP, Ortho-PhenylPhenol]",Effective Preservative (ppm),[1]; Acrylic Flat paint,>4000 ppm
same,"Microbial growth, 1st Inoculation, 1st sub-column","[1]; Acrylic paint, 1000 ppm",3
same,"Microbial growth, 1st Inoculation, 2nd sub-column","[1]; Acrylic paint, 1000 ppm",3
same,"Microbial growth, 2nd Inoculation, 1st sub-column","[1]; Acrylic paint, 1000 ppm",3
same,"Microbial growth, 2nd Inoculation, 2nd sub-column","[1]; Acrylic paint, 1000 ppm",3
same,"Microbial growth, 1st Inoculation, 1st sub-column","[1]; Acrylic paint, 1500 ppm",3
same,"Microbial growth, 1st Inoculation, 2nd sub-column","[1]; Acrylic paint, 1500 ppm",3
same,"Microbial growth, 2nd Inoculation, 1st sub-column","[1]; Acrylic paint, 1500 ppm",3
same,"Microbial growth, 2nd Inoculation, 2nd sub-column","[1]; Acrylic paint, 1500 ppm",3
same,"Microbial growth, 1st Inoculation, 1st sub-column","[1]; Acrylic paint, 2000 ppm",3
same,"Microbial growth, 1st Inoculation, 2nd sub-column","[1]; Acrylic paint, 2000 ppm",3
same,"Microbial growth, 2nd Inoculation, 1st sub-column","[1]; Acrylic paint, 2000 ppm",3
same,"Microbial growth, 2nd Inoculation, 2nd sub-column","[1]; Acrylic paint, 2000 ppm",3
same,"Microbial growth, 1st Inoculation, 1st sub-column","[1]; Acrylic paint, 2500 ppm",3
same,"Microbial growth, 1st Inoculation, 2nd sub-column","[1]; Acrylic paint, 2500 ppm",3
same,"Microbial growth, 2nd Inoculation, 1st sub-column","[1]; Acrylic paint, 2500 ppm",3
same,"Microbial growth, 2nd Inoculation, 2nd sub-column","[1]; Acrylic paint, 2500 ppm",3
same,"Microbial growth, 1st Inoculation, 1st sub-column","[1]; Acrylic paint, 3000 ppm",3
same,"Microbial growth, 1st Inoculation, 2nd sub-column","[1]; Acrylic paint, 3000 ppm",3
same,"Microbial growth, 2nd Inoculation, 1st sub-column","[1]; Acrylic paint, 3000 ppm",3
same,"Microbial growth, 2nd Inoculation, 2nd sub-column","[1]; Acrylic paint, 3000 ppm",3
same,"Microbial growth, 1st Inoculation, 1st sub-column","[1]; Acrylic paint, 3500 ppm",3
same,"Microbial growth, 1st Inoculation, 2nd sub-column","[1]; Acrylic paint, 3500 ppm",3
same,"Microbial growth, 2nd Inoculation, 1st sub-column","[1]; Acrylic paint, 3500 ppm",3
same,"Microbial growth, 2nd Inoculation, 2nd sub-column","[1]; Acrylic paint, 3500 ppm",3
same,"Microbial growth, 1st Inoculation, 1st sub-column","[1]; Acrylic paint, 4000 ppm",3
same,"Microbial growth, 1st Inoculation, 2nd sub-column","[1]; Acrylic paint, 4000 ppm",3
same,"Microbial growth, 2nd Inoculation, 1st sub-column","[1]; Acrylic paint, 4000 ppm",3
same,"Microbial growth, 2nd Inoculation, 2nd sub-column","[1]; Acrylic paint, 4000 ppm",3
same,Effective Preservative (ppm),[1]; Acrylic paint,>4000 ppm
same,"Microbial growth, 1st Inoculation, 1st sub-column",[1]; [3],3
same,"Microbial growth, 1st Inoculation, 2nd sub-column",[1]; [3],3
same,"Microbial growth, 2nd Inoculation, 1st sub-column",[1]; [3],3
same,"Microbial growth, 2nd Inoculation, 2nd sub-column",[1]; [3],3
same,"Microbial growth, 1st Inoculation, 1st sub-column",[1]; [4],3
same,"Microbial growth, 1st Inoculation, 2nd sub-column",[1]; [4],3
same,"Microbial growth, 2nd Inoculation, 1st sub-column",[1]; [4],3
same,"Microbial growth, 2nd Inoculation, 2nd sub-column",[1]; [4],3
same,"Microbial growth, 1st Inoculation, 1st sub-column",[1]; [5],3
same,"Microbial growth, 1st Inoculation, 2nd sub-column",[1]; [5],3
same,"Microbial growth, 2nd Inoculation, 1st sub-column",[1]; [5],3
same,"Microbial growth, 2nd Inoculation, 2nd sub-column",[1]; [5],3
same,"Microbial growth, 1st Inoculation, 1st sub-column",[1]; [6],3
same,"Microbial growth, 1st Inoculation, 2nd sub-column",[1]; [6],3
same,"Microbial growth, 2nd Inoculation, 1st sub-column",[1]; [6],3
same,"Microbial growth, 2nd Inoculation, 2nd sub-column",[1]; [6],3
same,"Microbial growth, 1st Inoculation, 1st sub-column",[1]; [7],3
same,"Microbial growth, 1st Inoculation, 2nd sub-column",[1]; [7],3
same,"Microbial growth, 2nd Inoculation, 1st sub-column",[1]; [7],3
same,"Microbial growth, 2nd Inoculation, 2nd sub-column",[1]; [7],3
same,"Microbial growth, 1st Inoculation, 1st sub-column",[1]; [8],3
same,"Microbial growth, 1st Inoculation, 2nd sub-column",[1]; [8],3
same,"Microbial growth, 2nd Inoculation, 1st sub-column",[1]; [8],3
same,"Microbial growth, 2nd Inoculation, 2nd sub-column",[1]; [8],3
same,"Microbial growth, 1st Inoculation, 1st sub-column",[1]; [9],3
same,"Microbial growth, 1st Inoculation, 2nd sub-column",[1]; [9],3
same,"Microbial growth, 2nd Inoculation, 1st sub-column",[1]; [9],3
same,"Microbial growth, 2nd Inoculation, 2nd sub-column",[1]; [9],3
same,"Microbial growth, 1st Inoculation, 1st sub-column",[1]; [10],2
same,"Microbial growth, 1st Inoculation, 2nd sub-column",[1]; [10],2
same,"Microbial growth, 2nd Inoculation, 1st sub-column",[1]; [10],2
same,"Microbial growth, 2nd Inoculation, 2nd sub-column",[1]; [10],2
same,"Microbial growth, 1st Inoculation, 1st sub-column",[1]; [11],2
same,"Microbial growth, 1st Inoculation, 2nd sub-column",[1]; [11],2
same,"Microbial growth, 2nd Inoculation, 1st sub-column",[1]; [11],2
same,"Microbial growth, 2nd Inoculation, 2nd sub-column",[1]; [11],2
same,"Microbial growth, 1st Inoculation, 1st sub-column",[1]; [12],2
same,"Microbial growth, 1st Inoculation, 2nd sub-column",[1]; [12],2
same,"Microbial growth, 2nd Inoculation, 1st sub-column",[1]; [12],2
same,"Microbial growth, 2nd Inoculation, 2nd sub-column",[1]; [12],2
same,"Microbial growth, 1st Inoculation, 1st sub-column",[1]; [13],2
same,"Microbial growth, 1st Inoculation, 2nd sub-column",[1]; [13],2
same,"Microbial growth, 2nd Inoculation, 1st sub-column",[1]; [13],2
same,"Microbial growth, 2nd Inoculation, 2nd sub-column",[1]; [13],2
same,"Microbial growth, 1st Inoculation, 1st sub-column",[1]; [14],2
same,"Microbial growth, 1st Inoculation, 2nd sub-column",[1]; [14],2
same,"Microbial growth, 2nd Inoculation, 1st sub-column",[1]; [14],2
same,"Microbial growth, 2nd Inoculation, 2nd sub-column",[1]; [14],2
same,"Microbial growth, 1st Inoculation, 1st sub-column",[1]; [15],2
same,"Microbial growth, 1st Inoculation, 2nd sub-column",[1]; [15],1
same,"Microbial growth, 2nd Inoculation, 1st sub-column",[1]; [15],2
same,"Microbial growth, 2nd Inoculation, 2nd sub-column",[1]; [15],1
same,"Microbial growth, 1st Inoculation, 1st sub-column",[1]; [16],2
same,"Microbial growth, 1st Inoculation, 2nd sub-column",[1]; [16],0
same,"Microbial growth, 2nd Inoculation, 1st sub-column",[1]; [16],2
same,"Microbial growth, 2nd Inoculation, 2nd sub-column",[1]; [16],0
same,Effective Preservative (ppm),[1]; Vinyl Acrylic Flat paint,4000 ppm
same,MIC,"[2]; pH 7, read-out: MIC, biocide alone",> 1000 µg/mL
same,Synergy Index,"[2]; pH 8.0, 1000 ppm NaOPP alone (0:100)",1.00
same,Synergy Index,"[2]; pH 9.0, 500 ppm NaOPP alone (0:100)",1.00
